Data: patent US6603044B1, “Phthalamide derivatives, or salt thereof agrohorticultural insecticide, and method for using the same” (Nihon Nohyaku Co., Ltd., priority 1998, dated 2003)

Assays:
Format in all cases: in vivo
[1] = tested on: Diamond Back Moth (Plutella xylostella); assay: Insecticidal effect on diamond back moth (Test Example 1); details: 50 ppm; Chinese cabbage seedling with deposited eggs immersed about 30 seconds; 25° C.; six days after the immersion
From the text: Insecticidal Effect on Diamond Back Moth (Plutella xylostella)
Adult diamondback moths were released and allowed to oviposit on a Chinese cabbage seedling. Two days after the release, the seedling having the eggs deposited thereon was immersed for about 30 seconds in a liquid chemical prepared by diluting a preparation containing each compound listed in Table 1, 2 or 3 as an active ingredient to adjust the concentration to 50 ppm. After air-dryness, it was allowed to stand in a room thermostatted at 25° C. Six days after the immersion, the hatched insects were counted. The mortality was calculated according to the following equation and the insecticidal effect was judged according to the criterion shown below. The test was carried out with triplicate groups of 10 insects.

[2] = tested on: Common Cutworm (Spodoptera Litura); assay: Insecticidal effect on common cutworm (Test Example 2); details: 50 ppm; cabbage leaf immersed about 30 seconds; second-instar larvae; 25° C.; eight days after the inoculation
From the text: Insecticidal Effect on Common Cutworm (Spodoptera Litura)
A piece of cabbage leaf (cultivar; Shikidori) was immersed for about 30 seconds in a liquid chemical prepared by diluting a preparation containing each compound listed in Table 1, 2 or 3 as an active ingredient to adjust the concentration to 50 ppm. After air-dryness, it was placed in a plastic Petri dish with a diameter of 9 cm and inoculated with second-instar larvae of common cutworm, after which the dish was closed and then allowed to stand in a room thermostatted at 25° C. Eight days after the inoculation, the dead and alive were counted. The mortality was calculated according to the following equation and the insecticidal effect was judged according to the criterion shown in Test Example 1. The test was carried out with triplicate groups of 10 insects. [formula]

[3] = tested on: Smaller tea Tortrix (Adoxophyes sp.); assay: Insecticidal effect on smaller tea tortrix (Test Example 3); details: 50 ppm; tea leaf immersed 30 seconds; larvae; 25° C., humidity 70%; eight days after the inoculation
Procedure: Insecticidal Effect on Smaller tea Tortrix (Adoxophyes sp.)
A leaf of tea tree was immersed for 30 seconds in a liquid chemical containing each compound listed in Table 1, 2 or 3 as an active ingredient to adjust the concentration to 50 ppm. After air-dryness, the leaf was transferred to a plastic dish with a diameter of 9 cm and inoculated with larval smaller tea tortrix. Then, the leaf was allowed to stand in a room thermostatted at 25° C. at a humidity of 70%. Eight days after the inoculation, the dead and alive were counted, and the insecticidal effect was judged according to the same criterion as mentioned in Test Example 1. The test was carried out with triplicate groups of 10 insects.

Compound	Test Example 1 insecticidal effect (mortality) [1]	Test Example 2 insecticidal effect (mortality) [2]	Test Example 3 insecticidal effect (mortality) [3]
CCN(CCSC)C(=O)c1c(F)cccc1C(=O)Nc1ccc(C(F)(C(F)(F)F)C(F)(F)F)cc1C [2-5]	A (100)	C (89-80)	
CCN(CCCSC)C(=O)c1c(F)cccc1C(=O)Nc1ccc(C(F)(C(F)(F)F)C(F)(F)F)cc1C [2-6]	A (100)	D (79-50)	
CCN(CSC)C(=O)c1c(Cl)cccc1C(=O)Nc1ccc(C(F)(C(F)(F)F)C(F)(F)F)cc1C [2-8]	A (100)	A (100)	
CCN(CSC)C(=O)c1c(Cl)cccc1C(=O)Nc1ccc(OC(F)(F)C(F)(F)F)cc1C [2-17]	A (100)	A (100)	
Cc1cc(C(F)(F)C(F)(F)F)ccc1NC(=O)c1cccc(I)c1C(=O)N1CCSC1 [3-1]	A (100)	A (100)	
CSCC(C)NC(=O)c1c(C(=O)Nc2ccc(C(F)(C(F)(F)F)C(F)(F)F)cc2C)cccc1S(C)(=O)=O (stereo not drawn) [Compound No. 191, N^1-(4-Heptafluoroisopropyl-2-methylphenyl)-N^2-(1-methyl-2-methylthioethyl)-3-methylsulfonylphthalamide]	A (100)	A (100)	
Cc1cc(OC(F)(F)F)ccc1NC(=O)c1cccc(I)c1C(=O)NC(C)CSC(C)C (stereo not drawn) [compound 5]	A (100)	A (100)	
Cc1cc(OC(F)(F)F)ccc1NC(=O)c1cccc(I)c1C(=O)NC(C)CSc1ccccn1 (stereo not drawn) [compound 74]	A (100)	D (79-50)	
Cc1cc(OC(F)(F)F)ccc1NC(=O)c1cccc(Br)c1C(=O)NC(C)C[S+](C)[O-] (stereo not drawn) [compound 87]	A (100)	C (89-80)	
Cc1cc(OC(F)(F)F)ccc1NC(=O)c1cccc(Br)c1C(=O)NC(C)CS(C)(=O)=O (stereo not drawn) [compound 88]	A (100)	C (89-80)	
CC(CS(C)(=O)=O)NC(=O)c1c(I)cccc1C(=O)Nc1cc2c(cc1Cl)OC(F)C(F)(F)O2 (stereo not drawn) [compound 102]	A (100)	A (100)	
CSCC(C)NC(=O)c1cc(I)ccc1C(=O)Nc1ccc(C(F)(F)C(F)(F)F)cc1C (stereo not drawn) [compound 108]	A (100)	A (100)	
CSCC(C)NC(=O)c1cccc(Cl)c1C(=O)Nc1ccc(C(F)(F)C(F)(F)F)cc1C (stereo not drawn) [compound 115]	A (100)	A (100)	
Cc1cc(C(F)(F)C(F)(F)F)ccc1NC(=O)c1cccc(I)c1C(=O)NC(C)CCC[S+](C)[O-] (stereo not drawn) [compound 133]	A (100)	A (100)	
Cc1cc(OC(F)(F)F)ccc1NC(=O)c1cccc(I)c1C(=O)NC(C)CS(=O)(=O)C(C)(C)C (stereo not drawn) [compound 139]	A (100)	A (100)	
CSC1CCCCC1NC(=O)c1c(I)cccc1C(=O)Nc1ccc(C(F)(C(F)(F)F)C(F)(F)F)cc1C (stereo not drawn) [compound 273]	A (100)		C (89-80)
Cc1cc(OC(F)(F)F)ccc1NC(=O)c1ccc2c(c1C(=O)NC(C)(C)CS(C)(=O)=O)OC(F)(F)O2 [compound 293]	A (100)		A (100)
CSCNC(=O)c1ccccc1C(=O)Nc1ccc(C(F)(C(F)(F)F)C(F)(F)F)cc1C [compound 298]	A (100)		A (100)
Cc1cc(C(F)(C(F)(F)F)C(F)(F)F)ccc1NC(=O)c1cccc(I)c1C(=O)NC(C)CSC(=S)N(C)C (stereo not drawn) [compound 302]	A (100)		A (100)
Cc1cc(C(F)(C(F)(F)F)C(F)(F)F)ccc1NC(=O)c1cccc(I)c1C(=O)NC(C)CSc1nc2ccccc2s1 (stereo not drawn) [compound 319]	A (100)		A (100)

Compound	Test Example 1 insecticidal effect (mortality) [1]	Test Example 2 insecticidal effect (mortality) [2]	Test Example 3 insecticidal effect (mortality) [3]
CSCC(C)(C)NC(=O)c1c(C(=O)Nc2ccc(Cl)cc2Cl)cccc1[N+](=O)[O-] [compound 326]	A (100)		A (100)
Cc1cc(C(F)(C(F)(F)F)C(F)(F)F)ccc1NC(=O)c1cccc([N+](=O)[O-])c1C(=O)NC(C)(C)C[S+](C)[O-] (stereo not drawn) [compound 327]	A (100)		A (100)
CSC1CCCC1NC(=O)c1c(I)cccc1C(=O)Nc1ccc(C(F)(C(F)(F)F)C(F)(F)F)cc1C (stereo not drawn) [compound 329]	A (100)		A (100)
CSCC(C)NC(=O)c1cc2ccccc2cc1C(=O)Nc1ccc(C(F)(C(F)(F)F)C(F)(F)F)cc1C (stereo not drawn) [compound 332]	A (100)		A (100)
Cc1cc(C(F)(C(F)(F)F)C(F)(F)F)ccc1NC(=O)c1ccc2ccccc2c1C(=O)NC(C)C[S+](C)[O-] (stereo not drawn) [compound 334]	A (100)		A (100)
Cc1cc(C(F)(C(F)(F)F)C(F)(F)F)ccc1NC(=O)c1ccc2ccccc2c1C(=O)NC(C)CS(C)(=O)=O (stereo not drawn) [compound 335]	A (100)		D (79-50)
Cc1cc(C(F)(C(F)(F)F)C(F)(F)F)ccc1NC(=O)c1cccc(I)c1C(=O)NC(C)C[S+]([O-])c1nc2ccccc2s1 (stereo not drawn) [compound 344]	A (100)		A (100)
Cc1cc(C(F)(C(F)(F)F)C(F)(F)F)ccc1NC(=O)c1cccc(I)c1C(=O)NC(C)CSc1nccs1 (stereo not drawn) [compound 352]	A (100)		A (100)
Cc1nnc(SCC(C)NC(=O)c2c(I)cccc2C(=O)Nc2ccc(C(F)(C(F)(F)F)C(F)(F)F)cc2C)s1 (stereo not drawn) [compound 353]	A (100)		A (100)
CSCC(C)NC(=O)c1c(I)cccc1C(=O)Nc1ccc([Si](C)(C)C)cc1C (stereo not drawn) [compound 368]	A (100)		A (100)
CSCC1(NC(=O)c2c(I)cccc2C(=O)Nc2ccc(C(F)(C(F)(F)F)C(F)(F)F)cc2C)CCCC1 [compound 445]	A (100)		A (100)
Cc1cc(C(F)(C(F)(F)F)C(F)(F)F)ccc1NC(=O)c1cccc(I)c1C(=O)NC(C)(C)CSCc1ccc(Cl)cc1 [compound 451]	A (100)		A (100)
Cc1cc(C(F)(C(F)(F)F)C(F)(F)F)ccc1NC(=O)c1cccc(I)c1C(=O)NC(C)CSC(=O)N(C)C (stereo not drawn) [compound 461]	A (100)		D (79-50)
CSCC(C)(C)NC(=O)c1c(I)cccc1C(=O)Nc1ccc(Cc2ccc(Cl)cc2)cc1C [compound 471]	A (100)		A (100)
CSCC(C)(C)NC(=O)c1c(I)cccc1C(=O)Nc1ccc(C(O)c2ccc(Cl)cc2)cc1C (stereo not drawn) [compound 472]	A (100)		A (100)
CSCC(C)(C)NC(=O)c1c(I)cccc1C(=O)Nc1ccc(Oc2ccc(Cl)cc2)cc1C [compound 473]	A (100)		B (99-90)
CSCC(C)(C)NC(=O)c1c(I)cccc1C(=O)Nc1ccc(Oc2cccc(Cl)c2)cc1C [compound 474]	A (100)		D (79-50)
CSCC(C)(C)NC(=O)c1c(I)cccc1C(=O)Nc1ccc(Oc2cccc(C#N)c2)cc1C [compound 475]	A (100)		A (100)
CSCC(C)(C)NC(=O)c1c(I)cccc1C(=O)Nc1ccc(C(=O)N(C)c2ccc(Cl)cc2)cc1C [compound 480]	A (100)		A (100)
